Source: US20250296960A1, “PEPTIDE COMPOSITIONS AND METHODS OF USE THEREOF” (priority 2022, published 2025)
Numbered stars: 1 amine (or outer) side, 2 acyl side, 3 side chain; on linkers, the order of the positions; unused ones are H or OH. Square brackets hold non-standard residues; d marks the D form. Side chains are listed from the residue outwards. Ends that are not written are not given here. * marks the point of attachment. C18 = C18 fatty acid (C16-C22 fatty acids conjugated via γGlu/8-amino-3,6-dioxaoctanoic acid spacers); C20 diacid = O=C(O)CCCCCCCCCCCCCCCCCCC(=O)*; γGlu = O=C(O)[C@H](CCC(=O)[*:2])N[*:1]; αMeL = CC(C)C[C@](C)(N)C(=O)O; AEEA = NCCOCCOCC(=O)O; Aib = CC(C)(N)C(=O)O

Tests used:
[1] = Body weight loss in normal C57BL/6 mice, subcutaneous dosing; type: in vivo; conditions: for Weight loss (%): normal mice
Protocol: To confirm the therapeutic effect of the peptide in vivo, polypeptides were administered to mice to measure changes in body weight. […] The peptides were delivered at 0.02% polysorbate 80 (PS80) in PBS and dosing volume was 10 mL/kg. Body weight was monitored 6 h, QD.
To confirm the therapeutic effect of the peptide in obesity, diabetes, or NASH, polypeptides were administered to mice to measure changes in food intake, blood glucose and body weight. […] In addition, a NASH animal model was prepared by feeding a high fat, high fructose, high cholesterol diet to normal C57BL/6 mice (approximately 6 weeks old) for approximately 21 weeks, and increasing the body weights of the mice to approximately 50 g on average. Thereafter, polypeptides were administered by subcutaneous injection at dose of 20 nmol/kg once every other day for 2 weeks. Body weight and food intake were measured once every other day given points of time. After 2 weeks of treatment period, mice were sacrificed, then liver weight, hepatic triglyceride, and NASH related biomarkers were measured.
DD01 administered at 40 nmol/kg, s.c. Q2D as positive control was delivered at 0.02% PS80 in PBS and dosing volume was 10 mL/kg. Body weight was monitored QD for 4 days.
The peptides were delivered at 0.02% PS80 in PBS and dosing volume was 10 mL/kg. Food intake, blood glucose, and body weight changes were monitored QD.

[2] = target: T1, human GIPR (Homo sapiens, UniProt P48546); assay: cAMP assay (HitHunter cAMP) in GIPR-expressing CHO-K1 cells (GIPR+ cells); type: cell-based
T1 construct: host or cells: CHO-K1
T1 sequence (P48546 22-466): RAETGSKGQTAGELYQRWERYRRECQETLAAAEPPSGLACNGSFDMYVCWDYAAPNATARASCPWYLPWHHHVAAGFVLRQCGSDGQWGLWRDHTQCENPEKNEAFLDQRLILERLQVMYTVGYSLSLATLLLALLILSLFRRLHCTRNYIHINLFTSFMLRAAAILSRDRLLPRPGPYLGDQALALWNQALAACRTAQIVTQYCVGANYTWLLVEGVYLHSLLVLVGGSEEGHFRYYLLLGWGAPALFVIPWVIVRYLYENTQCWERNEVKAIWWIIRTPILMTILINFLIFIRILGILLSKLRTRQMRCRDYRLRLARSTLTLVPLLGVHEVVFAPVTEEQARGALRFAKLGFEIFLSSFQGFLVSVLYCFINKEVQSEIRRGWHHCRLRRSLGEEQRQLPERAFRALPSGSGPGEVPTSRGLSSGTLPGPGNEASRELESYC
Protocol: (§1) The cells were seeded in a 96-well plate at 7×10^3 cells/well using cell plate reagent and incubated the cells overnight at 37° C. and 5% CO2. To perform the cAMP detection assay, cell plating reagent were replaced with the cAMP Assay buffer. Each of the wells was then treated with the diluted peptide and incubated for 30 minutes under conditions of a temperature of 37° C. in a CO2 incubator.
(§2) After the incubation, cAMP Antibody reagent and Working cAMP detection solution to all wells. Incubate the plate for 1 hour at Room temperature in the dark. Then, cAMP Solution A was added and incubated for 3 hours at room temperature in the dark. Subsequently, the luminescence was measured using the microplate reader device.

[3] = target: T2, human GLP-1R (Homo sapiens, UniProt P43220); assay: cAMP assay (HitHunter cAMP) in GLP-1R-expressing CHO-K1 cells (GLP-1R+ cells); type: cell-based
T2 construct: host or cells: CHO-K1
T2 sequence (P43220 24-463): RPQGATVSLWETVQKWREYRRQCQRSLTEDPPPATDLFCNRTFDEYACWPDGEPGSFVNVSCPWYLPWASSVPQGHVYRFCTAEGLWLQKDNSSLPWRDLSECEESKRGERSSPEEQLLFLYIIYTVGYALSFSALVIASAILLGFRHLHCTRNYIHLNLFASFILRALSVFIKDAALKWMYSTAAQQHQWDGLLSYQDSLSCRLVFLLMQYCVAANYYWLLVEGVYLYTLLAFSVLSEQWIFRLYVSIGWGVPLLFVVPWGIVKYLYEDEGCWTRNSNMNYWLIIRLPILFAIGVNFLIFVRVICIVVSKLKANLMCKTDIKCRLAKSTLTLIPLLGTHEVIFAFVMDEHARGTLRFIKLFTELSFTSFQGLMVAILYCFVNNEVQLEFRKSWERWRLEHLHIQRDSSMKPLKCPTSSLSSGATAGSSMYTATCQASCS
Protocol: as §1, §2

[4] = target: T3, human GCGR (Homo sapiens, UniProt P47871); assay: cAMP assay (HitHunter cAMP) in GCGR-expressing CHO-K1 cells (GCGR+ cells); type: cell-based
T3 construct: host or cells: CHO-K1
T3 sequence (P47871 26-477): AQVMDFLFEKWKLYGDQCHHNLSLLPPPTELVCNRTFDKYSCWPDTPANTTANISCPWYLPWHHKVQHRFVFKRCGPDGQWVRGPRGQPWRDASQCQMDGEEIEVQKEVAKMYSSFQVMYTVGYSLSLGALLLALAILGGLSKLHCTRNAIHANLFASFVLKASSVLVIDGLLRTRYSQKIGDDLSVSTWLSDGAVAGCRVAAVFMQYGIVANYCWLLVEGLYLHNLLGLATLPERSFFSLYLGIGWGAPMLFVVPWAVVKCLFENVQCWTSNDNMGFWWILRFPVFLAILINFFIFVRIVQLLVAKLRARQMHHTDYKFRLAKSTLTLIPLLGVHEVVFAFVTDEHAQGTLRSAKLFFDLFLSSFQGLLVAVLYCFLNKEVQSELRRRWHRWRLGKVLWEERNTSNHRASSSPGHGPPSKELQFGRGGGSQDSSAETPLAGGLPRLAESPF
Protocol: as §1, §2

[5] = 20 nmol/kg QD, after 48 or 72 hours
[6] = Table 13, EC50 of STD peptide over EC50 of peptide
[7] = Table 14, normalised to activity at GLP-1R
[8] = 20 nmol/kg QD, Weight loss at 48 hr

Compound: 5-4A: Peptide No. 5-4 lipidated via conjugation to C-terminal cysteine (type A) (H[Aib]QGTFTSDYSKYLDYMMQRDFVQWLIEGGPSSGAPPPSC([AEEA-AEEA-γGlu-C18])-NH2)
- Weight loss (%) [1, 5]: 8.3 ± 0.9%

Compound: 12-2A: Peptide No. 12-2 lipidated via conjugation to C-terminal cysteine (type A) (Y[Aib]QGTFTSDWSKYLDQQMQQDFVDWLINGGPSSGAPPPSC([AEEA-AEEA-γGlu-C18])-NH2)
- Weight loss (%) [1, 5]: 2.0 ± 0.9%

Compound: 12-4A: Peptide No. 12-4 lipidated via conjugation to C-terminal cysteine (type A) (H[Aib]QGTFTSDWSKYLDQQMQQDFVDWLINGGPSSGAPPPSC([AEEA-AEEA-γGlu-C18])-NH2)
- Weight loss (%) [1, 5]: 4.3 ± 0.9%

Compound: CC[C@H](C)[C@H](NC(=O)[C@H](CC(C)C)NC(=O)[C@H](Cc1c[nH]c2ccccc12)NC(=O)[C@H](CCC(N)=O)NC(=O)[C@@H](NC(=O)[C@H](Cc1ccccc1)NC(=O)[C@H](CC(=O)O)NC(=O)[C@H](CCCNC(=N)N)NC(=O)[C@H](C)NC(=O)[C@H](CCSC)NC(=O)[C@H](CCSC)NC(=O)[C@H](Cc1ccc(O)cc1)NC(=O)[C@H](CC(=O)O)NC(=O)[C@H](CC(C)C)NC(=O)[C@H](Cc1ccc(O)cc1)NC(=O)[C@H](CCCCNC(=O)CCCC[C@@H]1SC[C@@H]2NC(=O)N[C@@H]21)NC(=O)[C@H](CO)NC(=O)[C@H](Cc1ccc(O)cc1)NC(=O)[C@H](CC(=O)O)NC(=O)[C@H](CO)NC(=O)[C@@H](NC(=O)[C@H](Cc1ccccc1)NC(=O)[C@@H](NC(=O)CNC(=O)[C@H](CCC(N)=O)NC(=O)C(C)(C)NC(=O)[C@@H](N)Cc1c[nH]cn1)[C@@H](C)O)[C@@H](C)O)C(C)C)C(=O)N[C@@H](CCC(=O)O)C(=O)NCC(=O)NCC(=O)N1CCC[C@H]1C(=O)N[C@@H](CO)C(=O)N[C@@H](CO)C(=O)NCC(=O)N[C@@H](C)C(=O)N1CCC[C@H]1C(=O)N1CCC[C@H]1C(=O)N1CCC[C@H]1C(=O)N[C@@H](CO)C(=O)N[C@@H](CSC1CC(=O)N(CCNC(=O)COCCOCCNC(=O)COCCOCCNC(=O)CC[C@H](NC(=O)CCCCCCCCCCCCCCCCC(=O)O)C(=O)O)C1=O)C(N)=O (stereo partly shown) [5B, HAibQGT FTSDY SB*YLD YMMARDFVQWLIEGGPSSGAPPPSC*]
- Activity relative to STD peptide (%), GIP [2, 6]: 2%
- Activity relative to GLP-1 (%), GIP [2, 7]: 2%
- Activity relative to STD peptide (%), GLP-1 [3, 6]: 87%
- Activity relative to GLP-1 (%), GLP-1 [3, 7]: 100%
- Activity relative to STD peptide (%), Glucagon [4, 6]: 5%
- Activity relative to GLP-1 (%), Glucagon [4, 7]: 6%

Compound: 12-3A: Peptide No. 12-3 lipidated via conjugation to C-terminal cysteine (type A) (Y[Aib]QGTFTSDWSKYLDQQMQQDFVDWLLNGGPSSGAPPPSC([AEEA-AEEA-γGlu-C18])-NH2)
- Weight loss (%) [1, 5]: 0.2 ± 1.8%

Compound: YAibQGT FTSDY SKYLD YK*MAR DFVQW LIEGG PSSGA PPPS (Y[Aib]QGTFTSDYSKYLDYK([AEEA-AEEA-γGlu-C18])MARDFVQWLIEGGPSSGAPPPS-NH2) [5-1F, K* = lysine lipidated with 2OEG-γGlu-C18]
- Weight loss (%) [1, 8]: 21.9 ± 2.5%

Compound: 12-1A: Peptide No. 12-1 lipidated via conjugation to C-terminal cysteine (type A) (Y[Aib]QGTFTSDWSKYLDQQMAQDFVDWLINGGPSSGAPPPSC([AEEA-AEEA-γGlu-C18])-NH2)
- Weight loss (%) [1, 5]: 9.0 ± 2.2%

Compound: HAibQGT FTSDY SK*LLD YMMQRDFVQWLLEGGPSSGAPPPS (H[Aib]QGTFTSDYSK([AEEA-AEEA-γGlu-C18])LLDYMMQRDFVQWLLEGGPSSGAPPPS-NH2) [5-5D, K* = lysine lipidated with 2OEG-γGlu-C18]
- Weight loss (%) [1, 8]: 10.3 ± 1.3%

Compound: Y-Aib-QGTFTSDYSI-αMeL-LDKK((2-[2-(2-amino-ethoxy)-ethoxy]-acetyl)-(γGlu)-CO-(CH2)18-CO2H)AQ-Aib-AFIEYLLE-Aib-GPSS-Aib-APPPS-NH2 (Y[Aib]QGTFTSDYSI[αMeL]LDKK([AEEA-γGlu-C20 diacid])AQ[Aib]AFIEYLLE[Aib]GPSS[Aib]APPPS-NH2; N-terminus assumed; SMILES CC[C@H](C)[C@H](NC(=O)[C@H](Cc1ccccc1)NC(=O)[C@H](C)NC(=O)C(C)(C)NC(=O)[C@H](CCC(N)=O)NC(=O)[C@H](C)NC(=O)[C@H](CCCCNC(=O)COCCOCCNC(=O)CC[C@H](NC(=O)CCCCCCCCCCCCCCCCCCC(=O)O)C(=O)O)NC(=O)[C@H](CCCCN)NC(=O)[C@H](CC(=O)O)NC(=O)[C@H](CC(C)C)NC(=O)[C@](C)(CC(C)C)NC(=O)[C@@H](NC(=O)[C@H](CO)NC(=O)[C@H](Cc1ccc(O)cc1)NC(=O)[C@H](CC(=O)O)NC(=O)[C@H](CO)NC(=O)[C@@H](NC(=O)[C@H](Cc1ccccc1)NC(=O)[C@@H](NC(=O)CNC(=O)[C@H](CCC(N)=O)NC(=O)C(C)(C)NC(=O)[C@@H](N)Cc1ccc(O)cc1)[C@@H](C)O)[C@@H](C)O)[C@@H](C)CC)C(=O)N[C@@H](CCC(=O)O)C(=O)N[C@@H](Cc1ccc(O)cc1)C(=O)N[C@@H](CC(C)C)C(=O)N[C@@H](CC(C)C)C(=O)N[C@@H](CCC(=O)O)C(=O)NC(C)(C)C(=O)NCC(=O)N1CCC[C@H]1C(=O)N[C@@H](CO)C(=O)N[C@@H](CO)C(=O)NC(C)(C)C(=O)N[C@@H](C)C(=O)N1CCC[C@H]1C(=O)N1CCC[C@H]1C(=O)N1CCC[C@H]1C(=O)N[C@@H](CO)C(N)=O) [EL.EX.14, reference compound]
- Weight loss (%) ([1]; 10 nmol/kg QD, after 48 or 72 hours): 11.0 ± 2.4%

Compound: 12-5A: Peptide No. 12-5 lipidated via conjugation to C-terminal cysteine (type A) (H[Aib]QGTFTSDWSKYLDQQMQQDFVDWLLNGGPSSGAPPPSC([AEEA-AEEA-γGlu-C18])-NH2)
- Weight loss (%) [1, 5]: 5.4 ± 0.9%

Compound: 12-7A: Peptide No. 12-7 lipidated via conjugation to C-terminal cysteine (type A) (H[Aib]EGTFTSDWSKYLDQQMAQDFVDWLINGGPSSGAPPPSC([AEEA-AEEA-γGlu-C18])-NH2)
- Weight loss (%) [1, 5]: 9.5 ± 3.0%

Compound: 5-3A: Peptide No. 5-3 lipidated via conjugation to C-terminal cysteine (type A) (Y[Aib]QGTFTSDYSKLLDYMMQRDFVQWLLEGGPSSGAPPPSC([AEEA-AEEA-γGlu-C18])-NH2)
- body weight loss effect, in words ([1]; Example 5, 20 nmol/kg s.c. QD, 4 days): least effect
- Weight loss (%) [1, 5]: 5.5 ± 1.6%

Compound: HAibQGT FTSDY SK*YLD YMMQRDFVQWLIEGGPSSGAPPPS (H[Aib]QGTFTSDYSK([AEEA-AEEA-γGlu-C18])YLDYMMQRDFVQWLIEGGPSSGAPPPS-NH2) [5-4D, K* = lysine lipidated with 2OEG-γGlu-C18]
- Weight loss (%) [1, 8]: 7.2 ± 0.9%
